Test results reported in patent US11124508B2 (priority 2017, dated 2021).

melting point	Compound
166 to 168 °C	Cc1c(Cl)ccc2c(C3=NC(C)(C)C(F)(F)c4ccccc43)cnn12 [X.001, 1-(6-chloro-7-methyl-pyrazolo[1,5-a]pyridin-3-yl)-4,4-difluoro-3,3-dimethyl-isoquinoline]
113 to 118 °C	CC1(C)N=C(c2cnn3cc(Cl)ccc23)c2ccccc2C1(F)F [X.003, 1-(6-chloropyrazolo[1,5-a]pyridin-3-yl)-4,4-difluoro-3,3-dimethyl-isoquinoline]
105 to 107 °C	Cc1ccc2c(C3=NC(C)(C)C(F)(F)c4ccccc43)cnn2c1 [X.005, 4,4-difluoro-3,3-dimethyl-1-(6-methylpyrazolo[1,5-a]pyridin-3-yl)isoquinoline]
127 to 129 °C	CC1(C)N=C(c2cnn3cc(Br)ccc23)c2ccccc2C1(F)F [X.006, 1-(6-bromopyrazolo[1,5-a]pyridin-3-yl)-4,4-difluoro-3,3-dimethyl-isoquinoline]
180 to 182 °C	Cc1c(Br)ccc2c(C3=NC(C)(C)C(F)(F)c4ccccc43)cnn12 [X.007, 1-(6-bromo-7-methyl-pyrazolo[1,5-a]pyridin-3-yl)-4,4-difluoro-3,3-dimethyl-isoquinoline]
160 to 161 °C	Cc1ccc2c(C3=NC(C)(C)C(F)(F)c4ccccc43)cnn2c1C [X.011, 1-(6,7-dimethylpyrazolo[1,5-a]pyridin-3-yl)-4,4-difluoro-3,3-dimethyl-isoquinoline]
175 to 176 °C	Cc1ccc2c(C3=NC(C)(C)C(C)(C)c4c(F)cccc43)cnn2c1C [X.012, 1-(6,7-dimethylpyrazolo[1,5-a]pyridin-3-yl)-5-fluoro-3,3,4,4-tetramethyl-isoquinoline]
134 to 136 °C	Cc1cccc2c(C3=NC(C)(C)C(C)(C)c4c(F)cccc43)cnn12 [X.013, 5-fluoro-3,3,4,4-tetramethyl-1-(7-methylpyrazolo[1,5-a]pyridin-3-yl)isoquinoline]
159 to 161 °C	Cc1ccn2c(C3=NC(C)(C)C(F)(F)c4ccccc43)cnc2c1C [X.014, 1-(7,8-dimethylimidazo[1,2-a]pyridin-3-yl)-4,4-difluoro-3,3-dimethyl-isoquinoline]
185 to 186 °C	Cc1ccn2c(C3=NC(C)(C)C(C)(C)c4c(F)cccc43)cnc2c1C [X.016, 1-(7,8-dimethylimidazo[1,2-a]pyridin-3-yl)-5-fluoro-3,3,4,4-tetramethyl-isoquinoline]
160 to 161 °C	Cc1cccn2c(C3=NC(C)(C)C(C)(C)c4c(F)cccc43)cnc12 [X.019, 5-fluoro-3,3,4,4-tetramethyl-1-(8-methylimidazo[1,2-a]pyridin-3-yl)isoquinoline]
